Five compounds from patent US11945822B2, “Pyrazolo-triazine and/or pyrazolo-pxrimidine derivatives as selective inhibitor of cyclin dependent kinase” (QURIENT CO., LTD., priority 2018, dated 2024) can be followed below.

A word on the pIC50: it is the IC50 on a negative log10 scale, so that one unit is a factor of ten.

pIC50: −log10 of the molar value.

One experiment deals with T1, CDK1/Cyclin B (Homo sapiens, UniProt P06493).
T1 construct: purchased Invitrogen PR4768C
Put plainly: Enzymatic assay for CDK1 (FRET based LANCE Ultra kinase assay). The format is biochemical. The note with it: read-out: CDK1 enzymatic activity (IC50 activity range). The procedure, abridged:
(§1)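 LANCE Ultra TR-FRET: ULight-MBP peptide (68 nM) with ATP at Km, […], 60 min at 23° C. EDTA plus Eu-anti-phospho-MBP added, another 60 min, then 665/615 nm emission read. Compounds tested as 8-dose 4-fold DMSO dilutions.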
Background: TR-FRET usually uses a lanthanide donor and a delayed reading to cut background.

A further experiment has as its system A2780. Put plainly: Cellular A2780 viability assay (CellTiter-Glo, 72 hours). It is filed as cell-based. The following applies: Homo sapiens. The source says: Human T-cell acute lymphoblastic leukemia cell line, MOLT-4 (ATCC, Cat #CRL-1582), Human multiple myeloma cell line, RPMI-8226 (Invitrogen, Cat #22400-089) and MM.1S (ATCC, Cat #CRL-2974), NSCLC (Non-small cell lung cancer) cell line H460 (ATCC, Cat #HTB-177), Human colon colorectal carcinoma cell line HCT116 (ATCC, Cat #CCL-247), Human acute monocytic leukemia cell line MV4-11 (ATCC, Cat #CRL-9591), OVCAR-3 (ATCC, Cat #HTB-161) and A2780 (ECACC, Cat #93112519) were obtained from ATCC. Cells were grown in RPMI-1640 media (Invitrogen, Cat #22400-089) supplemented with 10% FBS (Invitrogen, Cat #10099141) and 1% penicillin/streptomycin (Invitrogen, Cat #15070063) and cultured at 37° C., 5% CO2 in a humidified chamber. All cell lines were routinely tested for mycoplasma.
The effect of the CDK7 inhibitor to inhibit the growth of target cancer cells was evaluated through the 72 hours time period of viability assay. Briefly, the candidate cell line ware plated in 96 well plate at the following density of cells respectively. 1×10^4 cells/well for MOLT-4, RPMI-8226, MV4-11 and MM.1S, 5×10^3 for H460, HCT116 and OVCAR-3 and IX 10^3 for A2780. After 24 hours, the cells were treated with various concentrations of the compound (ranging from 0.0015 uM to 10 uM). DMSO solvent without compound served as a control and final DMSO concentration less than 0.1%. After 72 hours of incubation at 37° C., 5% CO2 incubator, cells were analyzed for the viability using the CellTiter-Glo Luminescent Cell Viability Assay (Promega, Cat #G7570). All viability assays were performed in duplicate and Luminescence was read using an Envision (Perkin Elmer, USA). Data was analyzed using XLfit software.
On the technique in general: In ATP-based viability assays light output follows the ATP content of the culture.

The next experiment has as its target T2, CDK7/Cyclin H/MNAT1 (Homo sapiens, UniProt P50613).
T2 construct: purchased Invitrogen PR6749B
The experiment is described as follows: Enzymatic assay for CDK7 (FRET based LANCE Ultra kinase assay). The note with it: for pIC50: read-out: CDK7 enzymatic activity (IC50 activity range). The format is biochemical. The procedure, abridged: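 LANCE Ultra TR-FRET kinase assay using a ULight-labeled peptide substrate and a Eu-labeled anti-phospho antibody, with ATP at its Km. Purified CDK/cyclin complex was added to compound after brief centrifugation.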

The next experiment concerns H460. Put plainly: Cellular H460 viability assay (CellTiter-Glo, 72 hours). It is filed as cell-based. The following applies: Homo sapiens, NCI-H460. The procedure, abridged: (§2)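 72 h treatment, 37 °C, 5% CO2; DMSO ctrl, final <0.1%; CellTiter-Glo luminescence; n=2.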
The test system of another experiment is MV4-11. The experiment is described as follows: Cellular MV4-11 viability assay (CellTiter-Glo, 72 hours). The format is cell-based. The following applies: Homo sapiens. Summed up: as §2
The target of the next experiment is T3, CDK2/Cyclin A (Homo sapiens, UniProt P24941).
T3 construct: purchased Invitrogen PV6290
The experiment is described as follows: Enzymatic assay for CDK2 (FRET based LANCE Ultra kinase assay). It is filed as biochemical. The note with it: read-out: CDK2 enzymatic activity (IC50 activity range). Summed up:
as §1

The next experiment deals with T4, CDK5/p25 (Homo sapiens, UniProt Q00535).
T4 construct: purchased Invitrogen PR8543B
T4 sequence (Q00535 whole entry): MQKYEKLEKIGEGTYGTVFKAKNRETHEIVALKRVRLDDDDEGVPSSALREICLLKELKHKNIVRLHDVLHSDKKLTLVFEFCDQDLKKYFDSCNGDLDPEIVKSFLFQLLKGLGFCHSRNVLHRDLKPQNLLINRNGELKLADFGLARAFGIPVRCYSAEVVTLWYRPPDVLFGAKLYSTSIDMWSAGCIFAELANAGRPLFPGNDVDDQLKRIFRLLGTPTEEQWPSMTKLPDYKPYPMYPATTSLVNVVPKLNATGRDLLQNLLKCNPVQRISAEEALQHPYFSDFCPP
T4 sequence (Q15078 99-307 partner limits assumed): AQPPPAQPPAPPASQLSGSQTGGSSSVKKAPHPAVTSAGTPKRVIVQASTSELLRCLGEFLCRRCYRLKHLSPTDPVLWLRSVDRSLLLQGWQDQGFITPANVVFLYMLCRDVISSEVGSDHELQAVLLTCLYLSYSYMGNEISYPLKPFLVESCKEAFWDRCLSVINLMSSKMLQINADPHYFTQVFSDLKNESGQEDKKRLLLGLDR
The experiment is described as follows: Enzymatic assay for CDK5 (FRET based LANCE Ultra kinase assay). The format is biochemical. The note with it: read-out: CDK5 enzymatic activity (IC50 activity range). Summed up:
as §1

T2 sequence (P50613 whole entry): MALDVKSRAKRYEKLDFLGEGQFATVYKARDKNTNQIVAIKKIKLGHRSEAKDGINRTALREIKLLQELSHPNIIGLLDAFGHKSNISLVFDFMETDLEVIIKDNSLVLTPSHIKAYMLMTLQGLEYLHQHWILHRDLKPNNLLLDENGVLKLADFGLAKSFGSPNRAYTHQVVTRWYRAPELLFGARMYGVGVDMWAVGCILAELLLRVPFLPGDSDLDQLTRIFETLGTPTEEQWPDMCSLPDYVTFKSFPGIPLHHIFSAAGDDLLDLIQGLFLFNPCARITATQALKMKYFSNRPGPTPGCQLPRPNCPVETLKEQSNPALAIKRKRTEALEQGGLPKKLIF
T2 sequence (P51946 whole entry partner): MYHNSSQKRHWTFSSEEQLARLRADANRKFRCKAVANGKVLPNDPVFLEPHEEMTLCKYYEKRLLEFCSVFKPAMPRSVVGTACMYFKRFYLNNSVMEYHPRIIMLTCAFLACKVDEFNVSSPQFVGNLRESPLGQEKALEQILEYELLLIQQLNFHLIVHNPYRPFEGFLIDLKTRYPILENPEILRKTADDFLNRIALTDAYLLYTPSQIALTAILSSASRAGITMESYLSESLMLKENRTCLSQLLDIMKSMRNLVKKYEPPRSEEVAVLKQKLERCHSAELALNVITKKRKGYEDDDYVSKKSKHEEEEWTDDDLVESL
T2 sequence (P51948 whole entry partner): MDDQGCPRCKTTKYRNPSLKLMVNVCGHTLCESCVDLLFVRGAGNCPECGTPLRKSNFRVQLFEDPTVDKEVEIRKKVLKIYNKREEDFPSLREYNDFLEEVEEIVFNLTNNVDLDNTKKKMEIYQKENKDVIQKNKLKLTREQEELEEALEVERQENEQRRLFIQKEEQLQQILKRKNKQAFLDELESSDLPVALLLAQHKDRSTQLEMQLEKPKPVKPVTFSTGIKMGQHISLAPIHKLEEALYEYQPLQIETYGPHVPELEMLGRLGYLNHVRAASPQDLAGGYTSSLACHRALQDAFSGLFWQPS
T1 sequence (P06493 whole entry): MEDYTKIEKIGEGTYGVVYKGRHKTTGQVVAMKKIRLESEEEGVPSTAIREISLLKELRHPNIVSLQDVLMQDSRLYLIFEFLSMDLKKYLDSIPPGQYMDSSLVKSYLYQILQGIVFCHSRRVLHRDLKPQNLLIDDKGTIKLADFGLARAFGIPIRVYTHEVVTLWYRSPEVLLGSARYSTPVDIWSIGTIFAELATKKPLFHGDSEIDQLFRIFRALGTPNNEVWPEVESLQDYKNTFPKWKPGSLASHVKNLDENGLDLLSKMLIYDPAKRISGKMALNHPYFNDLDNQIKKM
T1 sequence (P14635 whole entry partner): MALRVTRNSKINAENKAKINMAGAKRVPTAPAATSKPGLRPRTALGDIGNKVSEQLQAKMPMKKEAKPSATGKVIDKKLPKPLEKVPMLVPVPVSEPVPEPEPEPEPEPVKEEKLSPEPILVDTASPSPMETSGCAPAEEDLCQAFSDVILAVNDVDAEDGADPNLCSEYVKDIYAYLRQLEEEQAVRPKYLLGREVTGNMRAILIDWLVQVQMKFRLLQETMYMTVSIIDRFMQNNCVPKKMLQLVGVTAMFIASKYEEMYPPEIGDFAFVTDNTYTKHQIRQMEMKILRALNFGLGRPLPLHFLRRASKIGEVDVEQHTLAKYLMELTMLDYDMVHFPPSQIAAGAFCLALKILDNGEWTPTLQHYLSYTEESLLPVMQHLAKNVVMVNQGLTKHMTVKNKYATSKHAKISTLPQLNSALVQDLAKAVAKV

Take `CC(C)c1cnn2c(NCc3ccccc3-n3cccn3)nc(N3CCc4ncccc4C3)nc12` [Compound 275]: the pIC50 at CDK1/Cyclin B was less than 6.00; in the experiment with A2780 it was 5.00 to 6.00; at CDK7/Cyclin H/MNAT1 it was more than 7.00; with H460, 5.00 to 6.00; in the experiment on MV4-11 it was 5.00 to 6.00; at CDK2/Cyclin A, less than 6.00. Also, the pIC50 at CDK5/p25 is less than 6.00. Besides, the “CDK1/CDK7: Selectivity of CDK7 inhibition over CDK1 inhibition” value at CDK7/Cyclin H/MNAT1 was “A (A=greater than 200 fold)”. Also, at CDK7/Cyclin H/MNAT1, the “CDK2/CDK7: Selectivity of CDK7 inhibition over CDK2 inhibition” value is reported as “B (B=less than 200 fold, but greater than 20 fold)”. Also, on CDK7/Cyclin H/MNAT1, the “CDK5/CDK7: Selectivity of CDK7 inhibition over CDK5 inhibition” value is given as “B (B=less than 200 fold, but greater than 20 fold)”.
For the compound `CC(C)c1cnn2c(NCc3ccccc3-c3ccc4ccccc4n3)nc(O[C@H]3CC[C@H](O)CC3)nc12` [Compound 273], the pIC50 is less than 6.00 on CDK1/Cyclin B; 5.00 to 6.00 in the experiment with A2780; more than 7.00 on CDK7/Cyclin H/MNAT1; 5.00 to 6.00 in the experiment on H460; 5.00 to 6.00 in the experiment on MV4-11; less than 6.00 at CDK2/Cyclin A. The pIC50 on CDK5/p25 is less than 6.00. Moreover, at CDK7/Cyclin H/MNAT1, the “CDK1/CDK7: Selectivity of CDK7 inhibition over CDK1 inhibition” value is given as “A (A=greater than 200 fold)”. The “CDK2/CDK7: Selectivity of CDK7 inhibition over CDK2 inhibition” value at CDK7/Cyclin H/MNAT1 is given as “A (A=greater than 200 fold)”. Further, the “CDK5/CDK7: Selectivity of CDK7 inhibition over CDK5 inhibition” value at CDK7/Cyclin H/MNAT1 is on record as “A (A=greater than 200 fold)”.
Regarding `CCN1CC[C@H](CNc2nc(NCc3ccccc3-c3ccc4ccccc4n3)n3ncc(C(C)C)c3n2)[C@@H](O)C1` [Compound 261], the negative logarithm of the IC50 (pIC50) on CDK1/Cyclin B is less than 6.00; in the experiment on A2780, not below 6.00; at CDK7/Cyclin H/MNAT1, more than 7.00; in the experiment with H460 it was more than 6.00; in the experiment with MV4-11 it was 5.00 to 6.00; on CDK2/Cyclin A, less than 6.00. Further, the pIC50 at CDK5/p25 is less than 6.00. In addition, at CDK7/Cyclin H/MNAT1, the “CDK1/CDK7: Selectivity of CDK7 inhibition over CDK1 inhibition” value is “A (A=greater than 200 fold)”. Also, at CDK7/Cyclin H/MNAT1, the “CDK2/CDK7: Selectivity of CDK7 inhibition over CDK2 inhibition” value is “A (A=greater than 200 fold)”. For the same compound, the “CDK5/CDK7: Selectivity of CDK7 inhibition over CDK5 inhibition” value at CDK7/Cyclin H/MNAT1 is “A (A=greater than 200 fold)”.
With `CC(C)c1cnn2c(NCc3c(Cl)cccc3-c3ncc(C(C)(C)O)s3)nc(N3CCC(N)CC3)nc12` [Compound 249], the pIC50 at CDK1/Cyclin B was less than 6.00; in the experiment on A2780, not below 6.00; on CDK7/Cyclin H/MNAT1, more than 7.00; with H460 it was more than 6.00; in the experiment with MV4-11 it was more than 6.00; on CDK2/Cyclin A, less than 6.00. Moreover, the pIC50 on CDK5/p25 was less than 6.00. The “CDK1/CDK7: Selectivity of CDK7 inhibition over CDK1 inhibition” value on CDK7/Cyclin H/MNAT1 is on record as “A (A=greater than 200 fold)”. The “CDK2/CDK7: Selectivity of CDK7 inhibition over CDK2 inhibition” value on CDK7/Cyclin H/MNAT1 is “A (A=greater than 200 fold)”. The “CDK5/CDK7: Selectivity of CDK7 inhibition over CDK5 inhibition” value on CDK7/Cyclin H/MNAT1 was “A (A=greater than 200 fold)”.
`CC(C)c1cnn2c(NCc3c(Cl)cccc3-n3ccc(C(C)(C)O)n3)nc(N3CCC(F)(CN)CC3)nc12` [Compound 252]: the pIC50 at CDK1/Cyclin B is less than 6.00; in the experiment on A2780, not below 6.00; at CDK7/Cyclin H/MNAT1, more than 7.00; in the experiment with H460, more than 6.00; in the experiment on MV4-11, more than 6.00; at CDK2/Cyclin A, less than 6.00. In addition, the pIC50 on CDK5/p25 is less than 6.00. For the same compound, the “CDK1/CDK7: Selectivity of CDK7 inhibition over CDK1 inhibition” value on CDK7/Cyclin H/MNAT1 is on record as “A (A=greater than 200 fold)”. The “CDK2/CDK7: Selectivity of CDK7 inhibition over CDK2 inhibition” value on CDK7/Cyclin H/MNAT1 is recorded as “A (A=greater than 200 fold)”. In addition, the “CDK5/CDK7: Selectivity of CDK7 inhibition over CDK5 inhibition” value at CDK7/Cyclin H/MNAT1 is “A (A=greater than 200 fold)”.
